4 compounds from PubChem BioAssay AID1259407 (Chemical Carcinogenesis Research Information System (CCRIS), 2018) can be followed below.

In the series the test system is CCRIS mutagenicity, Ames/micronucleus/aberration tests. Nature of the series: CCRIS mutagenicity studies. As to conditions: Test System: AMES SALMONELLA TYPHIMURIUM
Where [1] appears, read: Strain/Indicator: TA98, Metabolic Activation: HAMSTER, LIVER, S-9, AROCLOR 1254 (10%), Method: PREINCUBATION
[2] abbreviates: Strain/Indicator: TA98, Metabolic Activation: NONE, Method: PREINCUBATION
Where [3] appears, read: Strain/Indicator: TA98, Metabolic Activation: RAT, LIVER, S-9, AROCLOR 1254 (10%), Method: PREINCUBATION
Where [4] appears, read: Strain/Indicator: TA100, Metabolic Activation: HAMSTER, LIVER, S-9, AROCLOR 1254 (10%), Method: PREINCUBATION
Where [5] appears, read: Strain/Indicator: TA100, Metabolic Activation: NONE, Method: PREINCUBATION
Where [6] appears, read: Strain/Indicator: TA100, Metabolic Activation: RAT, LIVER, S-9, AROCLOR 1254 (10%), Method: PREINCUBATION
[7] abbreviates: Strain/Indicator: TA1535, Metabolic Activation: HAMSTER, LIVER, S-9, AROCLOR 1254 (10%), Method: PREINCUBATION
Setting [8] is: Strain/Indicator: TA1535, Metabolic Activation: NONE, Method: PREINCUBATION
[9] abbreviates: Strain/Indicator: TA1535, Metabolic Activation: RAT, LIVER, S-9, AROCLOR 1254 (10%), Method: PREINCUBATION
Setting [10] is: Strain/Indicator: TA1537, Metabolic Activation: NONE, Method: PREINCUBATION

Calls of active or inactive are those of the source. No rule for the calls is given here.

For the compound `COc1cc(-c2ccc(N/N=C3\C=C(S(=O)(=O)O)c4ccccc4C3=O)c(OC)c2)ccc1N/N=C1/C=C(S(=O)(=O)O)c2ccccc2C1=O`, the mutagenic call was “inactive; negative” under setting [1]; “inactive; negative” under setting [2]; “inactive; negative” under setting [3]; “inactive; negative” under setting [4]; “inactive; negative” under setting [5]; “inactive; negative” under setting [6]. The mutagenic call under setting [7] is “inactive; negative”; the mutagenic call under setting [8] was “inactive; negative”; the mutagenic call under setting [9] is “inactive; negative”; the mutagenic call (Strain/Indicator: TA1537, Metabolic Activation: HAMSTER, LIVER, S-9, AROCLOR 1254 (10%), Method: PREINCUBATION) is “inactive; negative”; the mutagenic call under setting [10] was “inactive; negative”; the mutagenic call (Strain/Indicator: TA1537, Metabolic Activation: RAT, LIVER, S-9, AROCLOR 1254 (10%), Method: PREINCUBATION) was “inactive; negative”. Besides, the mutagenic call (Strain/Indicator: TA1538, Metabolic Activation: RAT, LIVER, S-9, AROCLOR 1254, Method: STANDARD PLATE) is “inactive; negative”.

For the compound `CCCC[C@@H](C)[C@@H](OC(=O)C[C@@H](CC(=O)O)C(=O)O)[C@H](C[C@@H](C)CCCCCC[C@@H](O)C[C@H](O)[C@H](C)N)OC(=O)C[C@@H](CC(=O)O)C(=O)O`, the mutagenic call (Strain/Indicator: TA97A, Metabolic Activation: NONE, Method: STANDARD PLATE) was “inactive; negative”; the mutagenic call (Strain/Indicator: TA97A, Metabolic Activation: RAT, LIVER, S-9, AROCLOR 1254, Method: STANDARD PLATE) was “inactive; negative”; the mutagenic call (Strain/Indicator: TA98, Metabolic Activation: NONE, Method: STANDARD PLATE) was “inactive; negative”; the mutagenic call (Strain/Indicator: TA98, Metabolic Activation: RAT, LIVER, S-9, AROCLOR 1254, Method: STANDARD PLATE) was “inactive; negative”; the mutagenic call (Strain/Indicator: TA100, Metabolic Activation: NONE, Method: STANDARD PLATE) was “inactive; negative”; the mutagenic call (Strain/Indicator: TA100, Metabolic Activation: RAT, LIVER, S-9, AROCLOR 1254, Method: STANDARD PLATE) was “inactive; negative”. In addition, the mutagenic call reads like this: (Strain/Indicator: TA102, Metabolic Activation: NONE, Method: STANDARD PLATE) “inactive; negative”; (Strain/Indicator: TA102, Metabolic Activation: RAT, LIVER, S-9, AROCLOR 1254, Method: STANDARD PLATE) “inactive; negative”.

As for `Oc1c(I)cc(Cl)c2cccnc12`, the mutagenic call runs as follows: (Strain/Indicator: TA97, Metabolic Activation: HAMSTER, LIVER, S-9, AROCLOR 1254 (10%), Method: PREINCUBATION) “inactive; negative”; (Strain/Indicator: TA97, Metabolic Activation: HAMSTER, LIVER, S-9, AROCLOR 1254 (30%), Method: PREINCUBATION) “inactive; negative”; (Strain/Indicator: TA97, Metabolic Activation: NONE, Method: PREINCUBATION) “inactive; negative”; (Strain/Indicator: TA97, Metabolic Activation: RAT, LIVER, S-9, AROCLOR 1254 (10%), Method: PREINCUBATION) “inactive; negative”; (Strain/Indicator: TA97, Metabolic Activation: RAT, LIVER, S-9, AROCLOR 1254 (30%), Method: PREINCUBATION) “inactive; negative”; under setting [1], “inactive; negative”. The mutagenic call runs as follows: (Strain/Indicator: TA98, Metabolic Activation: HAMSTER, LIVER, S-9, AROCLOR 1254 (30%), Method: PREINCUBATION) “inactive; negative”; under setting [2], “inactive; negative”; under setting [3], “inactive; negative”; (Strain/Indicator: TA98, Metabolic Activation: RAT, LIVER, S-9, AROCLOR 1254 (30%), Method: PREINCUBATION) “inactive; negative”; under setting [4], “inactive; negative”; (Strain/Indicator: TA100, Metabolic Activation: HAMSTER, LIVER, S-9, AROCLOR 1254 (30%), Method: PREINCUBATION) “inactive; negative”. Further, the mutagenic call under setting [5] is “inactive; negative”; the mutagenic call under setting [6] is “inactive; negative”; the mutagenic call (Strain/Indicator: TA100, Metabolic Activation: RAT, LIVER, S-9, AROCLOR 1254 (30%), Method: PREINCUBATION) is “inactive; negative”; the mutagenic call under setting [7] is “inactive; negative”; the mutagenic call (Strain/Indicator: TA1535, Metabolic Activation: HAMSTER, LIVER, S-9, AROCLOR 1254 (30%), Method: PREINCUBATION) is “inactive; negative”; the mutagenic call under setting [8] was “inactive; negative”. The mutagenic call runs as follows: under setting [9], “inactive; negative”; (Strain/Indicator: TA1535, Metabolic Activation: RAT, LIVER, S-9, AROCLOR 1254 (30%), Method: PREINCUBATION) “inactive; negative”; (Strain/Indicator: TA1537, Metabolic Activation: HAMSTER, LIVER, S-9, AROCLOR 1254 (30%), Method: PREINCUBATION) “inactive; negative”; under setting [10], “inactive; negative”; (Strain/Indicator: TA1537, Metabolic Activation: RAT, LIVER, S-9, AROCLOR 1254 (30%), Method: PREINCUBATION) “inactive; negative”.

For `O=NSCCO`, the mutagenic call under setting [5] was “active; positive”.
